These are literature values, as cited in patent publication US20100125067A1, “SULFONAMIDE INHIBITORS OF CARBONIC ANHYDRASE II” (AUSPEX PHARMACEUTICALS, INC., priority 2008, published 2010).

One data set deals with carbonic anhydrase I (Homo sapiens, UniProt P00915). Conditions: as compared to the parent compound dorzolamide.
The target of another data set is carbonic anhydrase II (Homo sapiens, UniProt P00918). Conditions: as compared to the parent compound dorzolamide.

carbonic anhydrase I, sequence (P00915 whole entry, species assumed): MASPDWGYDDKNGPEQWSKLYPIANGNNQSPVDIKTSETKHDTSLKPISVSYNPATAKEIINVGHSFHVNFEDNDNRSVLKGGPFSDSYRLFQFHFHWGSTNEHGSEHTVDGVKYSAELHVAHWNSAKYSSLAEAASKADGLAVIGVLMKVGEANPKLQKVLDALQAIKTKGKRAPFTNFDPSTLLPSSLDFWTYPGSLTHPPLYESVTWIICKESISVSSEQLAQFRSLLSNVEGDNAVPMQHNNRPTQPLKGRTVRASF

As to `CC1CC(N)c2cc(S(N)(=O)=O)sc2S1(=O)=O` (centres unmarked) [N-de-ethylated metabolite], at carbonic anhydrase I, the “potency as inhibitor of carbonic anhydrase I” value was “more potent inhibitor”. Also, at carbonic anhydrase II, the “potency as inhibitor of carbonic anhydrase II” value was “less potent inhibitor”.
